Patent US5571687A, “Modulators of multidrug resistance transporters” (Duke University, priority 1994, dated 1996)
Where two headings read alike, the source gives them in different places. One block for each molecule: values may come before it.

What was measured:
[1] = target: P-glycoprotein (human MDR1 expressed in Sf9 cells) (Homo sapiens, UniProt P08183, G185V); assay: P-gp-associated ATPase activity (vanadate-sensitive release of inorganic phosphate from ATP), stimulation, membranes of Sf9 cells expressing human MDR1
Text: (§1) physiologic and non-physiologic compounds, including prenylcysteines and analogs thereof, can be tested in vitro for their ability to serve as P-gp substrates (and thus modulators of MDR transporter activity), both in terms of stimulating the intrinsic ATPase activity of the transporter and competing for drug binding. Insect cells (eg Sf9 cells) infected with baculovirus containing MDR1 cDNA (available from the American Type Culture Collection, Rockville, Md.) can be used as a source of membranes suitable for use in such in vitro screens. Membranes from drug-induced resistant cells can also be used (eg, MCF7-MDR breast cancer cells). Details of an appropriate protocol for testing compounds for their ability to stimulate P-gp-associated ATPase are given in the Examples. The method described involves incubating MDR transporter-containing membranes with the test compound and measuring the level of vanadate sensitive release of inorganic phosphate from ATP (see Sarkadi et al, J. Biol. Chem. 267:4854 (1992)).
Sf9 cells were grown in Grace's insect culture media supplemented with 10% fetal bovine serum (HyClone), 0.1% Pluronic F-68, 100 unit/ml penicillin and 100 μg/ml streptomycin. Sf9 cells were infected with baculovirus according to established procedures (O'Reilly et al, Baculovirus Expression Vectors--A Laboratory Manual, New York: W.H. Freeman & Co. (1992)). Recombinant baculovirus containing the human MDR1V185 cDNA (Germann et al, Biochemistry 29:2295 (1990)) was provided by Dr. M. Gottesman (MDR1 cDNAs are available from the American Type Culture Collection, Rockville, Md.). Mock-infection was carried out using recombinant baculovirus containing the cDNA encoding a protein prenyltransferase. […] These cells were grown in Iscove's Modified Dulbecco's Media (MDM) supplemented with 10% fetal bovine serum. The MCF7-MDR cells were exposed to 10 μM doxorubicin every 8-10 passages to maintain the drug-resistant phenotype.
Sf9 membranes were prepared from cells harvested 3 days after infection with specified baculovirus as described (Sarkadi et al, J. Biol. Chem. 267:4854 (1992)). MCF7 membranes from both wild-type and drug-resistant cell lines were prepared by nitrogen cavitation procedures (Cornwell et al, J. Biol. Chem. 261:7921 (1986)), flash-frozen in liquid nitrogen, and stored at -80° C. until use.
P-gp-associated ATPase activity was measured by determining vanadate-sensitive release of inorganic phosphate from ATP as described (Sarkadi et al, J. Biol. Chem. 267:4854 (1992)). Sf9 membranes containing 5-10 μg protein were incubated in 100 μl of 50 mM Mes-Tris, pH 6.8, 50 mM KCl, 2 mM DTT, 2 mM EGTA, 1 mM ouabain, 5 mM sodium azide, 5 mM Mg/ATP. P-gp-associated ATPase activity in MCF7-MDR cells was measured using the same condition except that 50 mM Mes-Tris, pH 6.8 was replaced by 50 mM Tris-HCl, pH 7.5. […] Reactions were conducted at 37° C. for 20 min.

P-gp = P-gp (Homo sapiens, UniProt P08183, G185V); assay: Inhibition of basal and drug-stimulated P-gp ATPase activity; format: biochemical
Text: FIG. 3. Ability of acetyl farnesyl methylester (AFCME) to block drug stimulated ATPase of MDR.
FIG. 4. Interaction of prenylcysteine methylamides and prenylcysteine-containing dipeptides with P-gp. The compounds were purified by reversephase HPLC chromatography and analyzed for their ability to stimulate the ATPase activity of P-gp in Sf9 membranes and, in the case of AFCMA, to inhibit FCME-stimulated ATPase activity as described for AFCME in Example 4. Left panel--Stimulation of P-gp ATPase activity in Sf9 membranes. Increasing concentration of FCMA (.box-solid.), farnesylated γGlu-Cys (unmethylated F-dipeptide, Δ), and the methylated form of farnesylated γGlu-Cys (methylated F-dipeptide, .tangle-solidup.) were analyzed. Right panel AFCMA inhibition of P-gp ATPase activity in Sf9 membranes. Increasing concentrations of AFCMA were added to membranes from Sf9 cells expressing P-gp either with no added drug (.largecircle.) or along with 20 μM […] as an ATPase stimulator (.circle-solid.).
The ATPase assay can also be used to identify test compounds that inhibit P-gp activity, ie P-gp antagonists, which are also potential agents for reversing P-gp-mediated drug resistance. In this type of assay, the ability of a selected test compound to reduce P-gp-ATPase which has been stimulated by a drug known to elicit this activity (eg verapimil or farnesylcysteine methyl ester (FCME) is examined. Increasing concentrations of the selected test compound and a fixed amount of the stimulatory drug are mixed, added to the P-gp preparation, and ATPase activity determined. A dose-dependent inhibition of ATPase activity by the selected compound indicates an antagonist.
Reactions were conducted at 37° C. for 20 min.

[2] = target: native P-gp expressed in the drug-resistant human breast cancer cell line MCF7-MDR (Homo sapiens, UniProt P08183); settings: mcf7-mdr membranes, 20 min
Text: as §1, with “(1992)). […]” for “(1992)).”
P-gp-associated ATPase activity was measured by determining vanadate-sensitive release of inorganic phosphate from ATP as described (Sarkadi et al, J. Biol. Chem. 267:4854 (1992)). […] P-gp-associated ATPase activity in MCF7-MDR cells was measured using the same condition except that 50 mM Mes-Tris, pH 6.8 was replaced by 50 mM Tris-HCl, pH 7.5. […]

[3] = read-out: maximum stimulation of P-gp ATPase

Compound: CC(=O)N[C@@H](CSCC=C(C)CCC=C(C)CCC=C(C)C)C(=O)O [AFC, N-acetyl-S-farnesylcysteine]
ATPase stimulation (in words) [1]: did not stimulate the transporter's ATPase activity

Compound: CNC(=O)C(CSCC=C(C)CCC=C(C)CCC=C(C)C)NC(C)=O (stereo not drawn) [AFCMA]
inhibition of drug-stimulated P-gp ATPase activity (in words) (P-gp; Sf9 membranes, FIG. 4 right panel): potent in stimulation (FCMA) and inhibition of drug-stimulated (AFCMA) P-gp ATPase activities

Compound: COC(=O)[C@H](CSCC=C(C)CCC=C(C)CCC=C(C)C)NC(C)=O [AFCME, N-acetyl-S-farnesylcysteine methyl ester]
ATPase stimulation (in words) [1]: essentially abolished its stimulatory effect
concentration at which the transporter's basal ATPase activity is inhibited (P-gp; basal ATPase activity): > 20 µM
blocking of basal and drug (FCME, verapamil)-stimulated ATPase activity (in words) (P-gp; dose-dependent, FIG. 3): can block both the basal and drug-stimulated ATPase activities of P-gp in a dose-dependent fashion
inhibition of basal ATPase activity (in words) (P-gp; higher concentrations (above 20 μM), preliminary analysis): marked inhibition of even the basal ATPase activity
stimulation of ATPase activity at low concentrations (in words) (P-gp; low (<20 μM) concentrations, preliminary analysis): weak stimulation of the ATPase activity

Compound: CC(C)=CCCC(C)=CCCC(C)=CCSC[C@H](NC(=O)CC[C@H](N)C(=O)O)C(=O)O [F-γGlu- Cys]
stimulation of P-gp ATPase activity (in words) [1]: stimulate P-gp ATPase activity in a methylation-dependent fashion

Compound: CC(C)=CCCC(C)=CCCC(C)=CCSC[C@H](N)C(=O)O [FC, S-farnesylcysteine]
stimulation of P-gp ATPase activity (in words) [1]: ineffective in stimulating the ATPase of P-gp

Compound: CC(C)=CCC/C(C)=C/CC/C(C)=C/CC/C(C)=C/CSC[C@H](N)C(=O)O [GGC, S-geranylgeranylcysteine]
stimulation of P-gp ATPase activity (in words) [1]: ineffective in stimulating the ATPase of P-gp

Further lines, with some results ahead:

stimulation of P-gp ATPase activity (in words) [1]: potent in stimulation
Compound: CNC(=O)C(N)CSCC=C(C)CCC=C(C)CCC=C(C)C (stereo not drawn) [FCMA]

concentration of maximum stimulation of P-gp ATPase [1]: 10 to 20 µM
Emax ([1]; read-out: Maximal stimulation of ATPase activity): ~450%
Emax [1, 3]: 400 to 500%
increase of P-gp-catalyzed ATP hydrolysis [2]: ~ 2.5 fold
Compound: COC(=O)[C@@H](N)CSC/C=C(\C)CC/C=C(\C)CCC=C(C)C [FCME, S-farnesylcysteine methyl ester]
stimulation of P-gp ATPase activity (in words) [1]: stimulated this activity in a fashion very similar to that of verapamil

ATPase stimulation (in words) [1]: ineffective
Compound: CC(C)=CCCC(C)=CCCC(C)=CCO [FOH, Farnesol, reference compound]

concentration of maximum stimulation of P-gp ATPase [1]: 10 to 20 µM
Emax [1, 3]: 400 to 500%
increase of P-gp-catalyzed ATP hydrolysis [2]: ~ 2.5 fold
Compound: COC(=O)[C@@H](N)CSC/C=C(\C)CC/C=C(\C)CC/C=C(\C)CCC=C(C)C [GGCME, S-geranylgeranylcysteine methyl ester]
stimulation of P-gp ATPase activity (in words) [1]: stimulated this activity in a fashion very similar to that of verapamil
